From article PMC6147803 (Acta Pharmaceutica Sinica. B, 2018)

Target: T1, PTP1B (Homo sapiens, UniProt P18031)
T1 sequence (P18031 1-435): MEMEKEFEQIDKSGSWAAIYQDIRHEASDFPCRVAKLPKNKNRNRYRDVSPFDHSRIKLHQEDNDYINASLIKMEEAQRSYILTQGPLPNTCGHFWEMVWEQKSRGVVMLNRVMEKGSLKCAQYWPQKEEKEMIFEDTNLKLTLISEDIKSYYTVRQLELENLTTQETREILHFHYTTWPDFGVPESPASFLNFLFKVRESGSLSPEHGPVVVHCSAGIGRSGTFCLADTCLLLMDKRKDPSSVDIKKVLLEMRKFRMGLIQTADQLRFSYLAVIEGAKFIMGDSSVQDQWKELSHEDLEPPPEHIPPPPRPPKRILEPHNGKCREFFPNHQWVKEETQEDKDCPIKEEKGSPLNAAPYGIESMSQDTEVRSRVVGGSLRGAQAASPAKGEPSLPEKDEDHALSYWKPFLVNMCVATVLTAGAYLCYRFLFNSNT
Test: p-NPP dephosphorylation end-point assay at […] nm, […] compound
Format: biochemical
Conditions: read-out: % inhibition at 10 μmol/L

- inhibition at 10 µM: 19.6%
Compound: COc1c(O)ccc(/C=C/C(=O)O)c1SC[C@@H](O)C(=O)O [compound 1, (S)-2-(2-carboxyl-2-hydroxyethylthio)-ferulic acid]
